Results published in ChEMBL document CHEMBL1201862, “PubChem BioAssay data set” (2004).
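Compound exposure: 48 hours, 5 concentrations, 96-well plates. Here, GI50 denotes the concentration required for 50% inhibition of growth.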 Active and inactive are the calls of the source. Rule as the data show it: active = GI50 up to about 1.1 µM and inactive = higher.

What was measured:
Experiment in all cases: NCI-60 cell line screen, 48 h
MOLT-4 = tested on: MOLT-4
KM12 = tested on: KM12
SK-MEL-28 = tested on: SK-MEL-28
SK-MEL-2 = tested on: SK-MEL-2
OVCAR-4 = tested on: OVCAR-4
IGROV-1 = tested on: IGROV-1
A549 = tested on: A549
HOP-92 = tested on: HOP-92
SW-620 = tested on: SW-620
SK-OV-3 = tested on: SK-OV-3
CCRF-CEM = tested on: CCRF-CEM
PC-3 = tested on: PC-3
RPMI-8226 = tested on: RPMI-8226
SF-295 = tested on: SF-295
NCI-H460 = tested on: NCI-H460
COLO 205 = tested on: COLO 205
K562 = tested on: K562
RXF 393 = tested on: RXF 393
HCC 2998 = tested on: HCC 2998
SF-539 = tested on: SF-539

Row | SMILES | GI50 (MOLT-4) | GI50 (KM12) | GI50 (SK-MEL-28) | GI50 (SK-MEL-2) | GI50 (OVCAR-4) | GI50 (IGROV-1) | GI50 (A549) | GI50 (HOP-92) | GI50 (SW-620) | GI50 (SK-OV-3) | GI50 (CCRF-CEM) | GI50 (PC-3) | GI50 (RPMI-8226) | GI50 (SF-295) | GI50 (NCI-H460) | GI50 (COLO 205) | GI50 (K562) | GI50 (RXF 393) | GI50 (HCC 2998) | GI50 (SF-539)
1 | C=CCOC1OC(CO[Si](C)(C)C(C)(C)C)C(OCc2ccccc2)C(OCc2ccccc2)C1OCc1ccccc1 (centres undefined) | > 100 µM (inactive) | > 100 µM (inactive) | > 100 µM (inactive) | 47.8 µM (inactive) | 39 µM (inactive) | 90.2 µM (inactive) | 23.6 µM (inactive) | 38.5 µM (inactive) | > 100 µM (inactive) | > 100 µM (inactive) | > 100 µM (inactive) | 58.9 µM (inactive) | > 100 µM (inactive) | 22.1 µM (inactive) | 42 µM (inactive) | > 100 µM (inactive) | > 100 µM (inactive) | – | – | –
2 | COC(=O)[C@@](C)(COC(=O)C(C)(C)C)NC(=O)OC(C)(C)C | > 100 µM (inactive) | > 100 µM (inactive) | > 100 µM (inactive) | > 100 µM (inactive) | > 100 µM (inactive) | > 100 µM (inactive) | > 100 µM (inactive) | – | > 100 µM (inactive) | > 100 µM (inactive) | > 100 µM (inactive) | > 100 µM (inactive) | > 100 µM (inactive) | > 100 µM (inactive) | > 100 µM (inactive) | > 100 µM (inactive) | > 100 µM (inactive) | > 100 µM (inactive) | > 100 µM (inactive) | > 100 µM (inactive)
3 | COC(=O)[C@@H]1[C@@H](c2cccc(Cl)c2)[C@H](C(=O)OC)C2(C[C@@]1(C)O)NCCS2 (some centres undefined) | 0.57 µM (active) | 48.8 µM (inactive) | 77.4 µM (inactive) | 16.6 µM (inactive) | 46.7 µM (inactive) | 62.5 µM (inactive) | 55 µM (inactive) | 73.6 µM (inactive) | 36.6 µM (inactive) | > 100 µM (inactive) | 0.684 µM (active) | 31.4 µM (inactive) | – | > 100 µM (inactive) | 48.4 µM (inactive) | 81.1 µM (inactive) | 25.6 µM (inactive) | 49.4 µM (inactive) | – | > 100 µM (inactive)
4 | N=C1N(S(=O)(=O)c2ccccc2)[C@@H](Cc2ccccc2)[C@H](c2ccccc2)C1(c1ccccc1)c1ccccc1 | 16.8 µM (inactive) | 31.4 µM (inactive) | > 100 µM (inactive) | > 100 µM (inactive) | > 100 µM (inactive) | > 100 µM (inactive) | > 100 µM (inactive) | – | > 100 µM (inactive) | > 100 µM (inactive) | 27.2 µM (inactive) | 9.62 µM (inactive) | 14 µM (inactive) | > 100 µM (inactive) | 36.7 µM (inactive) | 80.7 µM (inactive) | 71.1 µM (inactive) | 63.2 µM (inactive) | 27.2 µM (inactive) | > 100 µM (inactive)
5 | O=C1NC(=O)C(C(CC(=O)c2ccc([N+](=O)[O-])cc2)c2ccccc2)C(=O)N1 (centres undefined) | 73.3 µM (inactive) | 14.8 µM (inactive) | > 100 µM (inactive) | > 100 µM (inactive) | > 100 µM (inactive) | > 100 µM (inactive) | 97.3 µM (inactive) | > 100 µM (inactive) | 29.2 µM (inactive) | > 100 µM (inactive) | 35.2 µM (inactive) | 55.8 µM (inactive) | 31.3 µM (inactive) | 4.79 µM (inactive) | > 100 µM (inactive) | > 100 µM (inactive) | 60.3 µM (inactive) | 2.77 µM (inactive) | – | > 100 µM (inactive)
6 | O=C1c2ccccc2-c2nc(-c3cccs3)cc3c2c1nc1ccccc13 | 37.1 µM (inactive) | 11.4 µM (inactive) | 17.5 µM (inactive) | 13.6 µM (inactive) | 56 µM (inactive) | 12.4 µM (inactive) | 9.29 µM (inactive) | > 100 µM (inactive) | 13.8 µM (inactive) | > 100 µM (inactive) | 22.3 µM (inactive) | 12.6 µM (inactive) | 23.2 µM (inactive) | 27.8 µM (inactive) | 4.69 µM (inactive) | 13.2 µM (inactive) | 13.5 µM (inactive) | – | 16.7 µM (inactive) | 24.5 µM (inactive)
7 | O=C(n1c(=O)n(-c2ccc(Cl)cc2)c(=O)n1C(=O)C(Cl)(Cl)Cl)C(Cl)(Cl)Cl | > 100 µM (inactive) | 82.8 µM (inactive) | > 100 µM (inactive) | > 100 µM (inactive) | > 100 µM (inactive) | > 100 µM (inactive) | > 100 µM (inactive) | > 100 µM (inactive) | > 100 µM (inactive) | > 100 µM (inactive) | > 100 µM (inactive) | > 100 µM (inactive) | > 100 µM (inactive) | > 100 µM (inactive) | > 100 µM (inactive) | > 100 µM (inactive) | 21.4 µM (inactive) | – | > 100 µM (inactive) | > 100 µM (inactive)
8 | CC(C)(C)OCC1NC(=O)[C@@H]2Cc3c([nH]c4ccccc34)C(C3CCCCC3)N2C1=O (some centres undefined) | 16.5 µM (inactive) | 17.8 µM (inactive) | 22.6 µM (inactive) | 20.7 µM (inactive) | 23.9 µM (inactive) | 23.2 µM (inactive) | 33.7 µM (inactive) | 22.1 µM (inactive) | 25.3 µM (inactive) | 51.4 µM (inactive) | – | 18.8 µM (inactive) | 19.8 µM (inactive) | 18.2 µM (inactive) | – | 20.7 µM (inactive) | 27.3 µM (inactive) | 15.6 µM (inactive) | – | –
9 | Cc1ccc(-c2cnc(NC3OC(COC(=O)c4ccccc4)C(OC(=O)c4ccccc4)C(OC(=O)c4ccccc4)C3OC(=O)c3ccccc3)s2)cc1 (centres undefined) | > 100 µM (inactive) | – | > 100 µM (inactive) | > 100 µM (inactive) | 68.1 µM (inactive) | > 100 µM (inactive) | > 100 µM (inactive) | 20.4 µM (inactive) | > 100 µM (inactive) | > 100 µM (inactive) | – | > 100 µM (inactive) | > 100 µM (inactive) | > 100 µM (inactive) | > 100 µM (inactive) | > 100 µM (inactive) | – | > 100 µM (inactive) | – | –
10 | O=C(N/N=C\c1cccc2c([N+](=O)[O-])cccc12)Nc1ccccc1 | 13.4 µM (inactive) | 14.9 µM (inactive) | 16.4 µM (inactive) | 2.27 µM (inactive) | 11.6 µM (inactive) | 19 µM (inactive) | 10.3 µM (inactive) | 12.3 µM (inactive) | 13.2 µM (inactive) | – | 10.5 µM (inactive) | 14.8 µM (inactive) | 14.7 µM (inactive) | 13.9 µM (inactive) | 14.2 µM (inactive) | 18.5 µM (inactive) | 5.85 µM (inactive) | 7.53 µM (inactive) | 15.1 µM (inactive) | 11.5 µM (inactive)
11 | NC1CC(=O)c2c1sc(Cl)c2Cl (centres undefined) | > 100 µM (inactive) | > 100 µM (inactive) | > 100 µM (inactive) | > 100 µM (inactive) | – | > 100 µM (inactive) | > 100 µM (inactive) | – | > 100 µM (inactive) | > 100 µM (inactive) | > 100 µM (inactive) | > 100 µM (inactive) | > 100 µM (inactive) | – | > 100 µM (inactive) | > 100 µM (inactive) | > 100 µM (inactive) | > 100 µM (inactive) | > 100 µM (inactive) | > 100 µM (inactive)
12 | CCOC(=O)CCC(NC(=O)c1ccc(N2CCN(c3c(C)nc(N)nc3N)CC2)cc1)C(=O)OCC (centres undefined) | 0.186 µM (active) | 1.43 µM (inactive) | > 31.6 µM (inactive) | > 100 µM (inactive) | > 100 µM (inactive) | 0.113 µM (active) | 0.213 µM (active) | 48.6 µM (inactive) | – | > 100 µM (inactive) | 0.109 µM (active) | 0.0398 µM (active) | 1.76 µM (inactive) | – | 6.53 µM (inactive) | > 64.1 µM (inactive) | < 0.01 µM (active) | – | 10.6 µM (inactive) | 16.2 µM (inactive)
13 | COc1ccc(C2NC(=S)Nc3c2c(=O)oc2c3ccc3ccccc32)cc1 (centres undefined) | 73.5 µM (inactive) | 58.3 µM (inactive) | 52.5 µM (inactive) | 44.1 µM (inactive) | 69.2 µM (inactive) | > 100 µM (inactive) | 52.1 µM (inactive) | 41.8 µM (inactive) | > 100 µM (inactive) | > 100 µM (inactive) | 46 µM (inactive) | 54.7 µM (inactive) | 47.6 µM (inactive) | 59.3 µM (inactive) | 96.6 µM (inactive) | > 100 µM (inactive) | 56.9 µM (inactive) | > 100 µM (inactive) | – | –
14 | Cc1nc2ccc(F)cc2c(Cl)c1CCCl | 21.3 µM (inactive) | 28.1 µM (inactive) | 40.3 µM (inactive) | – | 83.8 µM (inactive) | 59.8 µM (inactive) | 42.3 µM (inactive) | 36 µM (inactive) | 39.5 µM (inactive) | – | 18.6 µM (inactive) | 44.4 µM (inactive) | 42.8 µM (inactive) | 51.1 µM (inactive) | 30.5 µM (inactive) | 20 µM (inactive) | 25.8 µM (inactive) | 21.7 µM (inactive) | 33.4 µM (inactive) | 67.3 µM (inactive)
15 | O=[As](O)(O)c1ccc(/N=N/c2ccc([As](=O)(O)O)cc2)cc1 | > 100 µM (inactive) | > 100 µM (inactive) | > 100 µM (inactive) | > 100 µM (inactive) | > 100 µM (inactive) | > 100 µM (inactive) | > 100 µM (inactive) | > 100 µM (inactive) | > 100 µM (inactive) | – | – | > 100 µM (inactive) | – | > 100 µM (inactive) | > 100 µM (inactive) | – | > 100 µM (inactive) | > 100 µM (inactive) | – | –
